{
  "source": "paper PMC10154249",
  "about": "“Unique progerin C-terminal peptide ameliorates Hutchinson–Gilford progeria syndrome phenotype by rescuing BUBR1” (Nature Aging, 2023)",
  "key": {"Lmna^G609G/G609G mice": {"test_system": "Lmna^G609G/G609G mice", "test": "Open field test", "format": "in vivo, mouse", "settings": "for Distance: LmnaG609G/G609G-UPCP, one line per mouse", "description": "For UPCP injection, 14-day-old Lmna^G609G/G609G mice were injected intraperitoneally with either PBS or UPCP (20 mg kg^–1, every other day) and wild-type mice were injected with PBS. All phenotypic analyses were performed after 12 weeks of treatment with UPCP. Bodyweight and lifespan were monitored after UPCP treatment. The survival rate was analyzed by the Kaplan–Meier method. We only included mice that were of sufficient bodyweight at the start of the experiment, typically at least 80% of the average littermate weight of the same sex and genotype. All animals meeting criteria for inclusion were then divided randomly into three groups according to genotype (Lmna^+/+, Lmna^G609G/G609G-Mock and Lmna^G609G/G609G-UPCP).\nThe mice were acclimated to the testing room for 2 h before the test. Before each individual trial, the testing apparatus was cleaned with 75% ethanol. Mice were placed individually in a random corner of the box (40 × 40 × 35 cm) facing the wall. Their movements, indicating locomotor activity, were recorded with a video camera for 20 min and were analyzed with Ethovision XT 10 (Noldus)."}, "IMR90 cells": {"test_system": "IMR90 cells", "test": "Etoposide-, Ras- and H2O2-induced early stage senescence of IMR90 cells", "format": "cell-based, human", "settings": "IMR90, UPCP 6 μM, another 5 days; SA-β-gal, Ki67, Western blot", "excerpt": "HGPS is an extremely rare congenital genetic disease, and its treatments are still under theoretical research. […] Also, to investigate the role of UPCP on other senescence models, we used Etoposide, Ras or H2O2 to induce senescence of IMR90 cells, and added UPCP to the cells treated with the drugs mentioned above when the cells just entered early stage senescence. […] Further work aimed at obtaining UPCPs with stronger stability, longer half-life and optimized physical structures are under planning. Therefore, UPCP may have broad application prospects in the treatment of HGPS.\nSA-β-gal positive cells was calculated (c). Scale bars: 200 μm. d. Western blot analysis of Lamin B1, CyclinA2, IL-6 and p21 in senescent IMR90 cells with the indicated treatments. e,f.\nImmunofluorescence analysis of Ki67 in IMR90 cells with the indicated treatment. Representative […]\n≥ 200 cells. Scale bars: 50 μm. For bar and line graphs, data are presented as mean ± SD.\nStatistical significance was determined in c and f using two-tailed unpaired Student’s t-test.\nSupplementary Data Figure 2. UPCP delays Etoposide, Ras and H2O2 induced early stage cellular senescence. a. […]\nand the percentage of the Ki67 positive cells was calculated (f), n ≥ 200 cells. […]\nFor bar and line graphs, data are presented as mean ± SD. Statistical significance was determined inc and f using two-tailed unpaired Student’s t-test."}, "IMR90-progerin cells": {"test_system": "IMR90-progerin cells", "test": "γH2AX foci in IMR90-progerin cells", "format": "cell-based, human", "settings": "for γH2AX foci per cell, n>10 / γH2AX foci per cell, n≤10: IMR90-Flag-progerin+UPCP", "description": "Immunofluorescence was performed as described previously. Cells were plated on cover slips in 12-well plates, left overnight before the treatment. Cells were fixed in 1% formaldehyde in culture medium for 10 min at 37 °C and permeabilized with 0.2% Triton X-100 in PBS for 10 min at room temperature. Cells were washed twice in PBS and blocked for 1 h with 5% BSA in PBS and then incubated with primary antibodies at 4 °C overnight, washed three times in PBS and incubated with secondary antibodies for 1 h at room temperature. Cell nuclei were counterstained with a 500 nM concentration of 4,6-diamidino-2-phenylindole (DAPI) (Sigma). Images were acquired by a fluorescence microscope (OLYMPUS FV-1000, Carl Zeiss LSM880 or Leica DMi8) and analyzed with software NIS-Elements AR v.5.0.1 (Nikon), FLUOVIEW v.4.2b (OLYMPUS), ZEN v.2.3 SP1 (Carl Zeiss) and Leica Application Suite X v.3.6.0.24 (Leica). Cells were quantified by investigators who were blinded to the identity of the analyzed cell."}},
  "note": "Values joined by “and” are separate entries in the source; they are usually repeats but may differ in a detail not shown here. Identical values can stand only once.",
  "data": [
    {"substance": "H-YGRKKRRQRRRYNLRSRTVLCGTCGQPADKASASGSGAQSPQNCSIM-OH (cysteines drawn unpaired) [UPCP, unique progerin C-terminal peptide]", "values": [
      {"measurement": "mobility", "setting": "Lmna^G609G/G609G mice; 20 mg kg^–1 i.p. every other day, open field, 20 min", "value": "enhanced the mobility"},
      {"measurement": "Distance", "setting": "Lmna^G609G/G609G mice; female mice, Fig. 6g", "value": "3465.62 cm and 4842.39 cm and 4480.91 cm and 4399.08 cm and 3236.68 cm and 4440.93 cm"},
      {"measurement": "Distance", "setting": "Lmna^G609G/G609G mice; male mice, Fig. 6h", "value": "5127.23 cm and 4324.53 cm and 5298.93 cm and 5261.99 cm and 4436.52 cm and 3525.05 cm"},
      {"measurement": "etoposide-, ras- and H2O2-induced early stage cellular senescence", "setting": "IMR90 cells", "value": "delayed etoposide-, ras- and H2O2-induced early stage cellular senescence modestly"},
      {"measurement": "γH2AX foci per cell, n>10", "setting": "IMR90-progerin cells; replicate 1", "value": 75, "unit": "%"},
      {"measurement": "γH2AX foci per cell, n≤10", "setting": "IMR90-progerin cells; replicate 1", "value": 25, "unit": "%"},
      {"measurement": "γH2AX foci per cell, n>10", "setting": "IMR90-progerin cells; replicate 2", "value": 69, "unit": "%"},
      {"measurement": "γH2AX foci per cell, n≤10", "setting": "IMR90-progerin cells; replicate 2", "value": 31, "unit": "%"},
      {"measurement": "γH2AX foci per cell, n>10", "setting": "IMR90-progerin cells; replicate 3", "value": 61, "unit": "%"},
      {"measurement": "γH2AX foci per cell, n≤10", "setting": "IMR90-progerin cells; replicate 3", "value": 39, "unit": "%"},
      {"measurement": "γH2AX-53BP1 foci", "setting": "IMR90-progerin cells; IMR90-progerin cells", "value": "lower level of γH2AX-53BP1 foci"}
    ]}
  ]
}
